Experimental findings from paper PMC9573294, “AVA-NP-695 Selectively Inhibits ENPP1 to Activate STING Pathway and Abrogate Tumor Metastasis in 4T1 Breast Cancer Syngeneic Mouse Model” (Molecules, 2022) are described below.

This assay has as its target T1, Ectonucleotide pyrophosphatase/phosphodiesterase 1 (ENPP1) (Homo sapiens, UniProt P22413).
T1 construct: Human recombinant ENPP1 (rENPP1)
T1 sequence (P22413 98-925 limits assumed): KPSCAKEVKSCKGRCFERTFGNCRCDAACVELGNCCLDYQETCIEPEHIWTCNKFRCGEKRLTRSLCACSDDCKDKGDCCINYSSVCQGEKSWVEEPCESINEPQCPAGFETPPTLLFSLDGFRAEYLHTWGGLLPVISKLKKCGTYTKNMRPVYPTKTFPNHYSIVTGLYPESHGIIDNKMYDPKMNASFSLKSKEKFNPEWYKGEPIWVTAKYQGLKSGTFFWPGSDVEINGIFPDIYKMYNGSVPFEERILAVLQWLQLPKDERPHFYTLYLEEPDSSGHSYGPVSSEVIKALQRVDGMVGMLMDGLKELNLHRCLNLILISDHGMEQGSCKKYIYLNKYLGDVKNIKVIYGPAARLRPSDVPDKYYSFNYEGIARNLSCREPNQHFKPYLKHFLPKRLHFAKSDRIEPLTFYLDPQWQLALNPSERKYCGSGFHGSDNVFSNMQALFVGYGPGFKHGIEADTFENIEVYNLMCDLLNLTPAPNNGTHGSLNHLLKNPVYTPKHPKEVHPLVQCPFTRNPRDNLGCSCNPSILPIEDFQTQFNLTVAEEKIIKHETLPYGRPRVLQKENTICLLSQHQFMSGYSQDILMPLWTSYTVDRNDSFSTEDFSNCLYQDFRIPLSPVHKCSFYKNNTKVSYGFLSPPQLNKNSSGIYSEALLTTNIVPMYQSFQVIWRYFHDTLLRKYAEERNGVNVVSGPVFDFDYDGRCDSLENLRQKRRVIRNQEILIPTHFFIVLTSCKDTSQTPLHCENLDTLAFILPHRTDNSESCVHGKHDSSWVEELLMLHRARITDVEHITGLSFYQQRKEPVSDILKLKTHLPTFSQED
Description: enzymatic assay with p-Nph-5'-TMP substrate (Ki […] with […]'[…]'-cGAMP and […] with p-NPh-5'-TMP also printed). The format is biochemical.

Usually IC50 stands for the point on the concentration scale where inhibition reaches its midpoint. A lower IC50 goes with higher potency. As for AVA-NP-695, the IC50 was 0.014 ± 0.002 µM.
